The text below walks through data of patent publication EP4772510A2, “BENZAZEPINONE COMPOUND AND USE THEREOF” (HANGZHOU BIO-SINCERITY PHARMA-TECHCO., LTD., priority 2023, dated 2025).

One data set has as its system U937 cells. As to the kind of experiment: Inhibition of TNF-α-induced necroptosis of U937 cells (CCK-8 assay). Format: cell-based, human. The following applies: 18 h. Summed up:
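U937 cells (3.6 × 10^4/well) rested 6 h, then exposed to TNF-α 20 ng/mL, BV6 2 µM and Z-VAD-FMK 20 µM plus compound (8-point 3-fold series, 1000–0.46 nM, duplicate) for 18 h. Viability by CCK-8, absorbance at 450 nm after 2-4 h at 37 °C; EC50 calculated.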
Background: Tetrazolium dyes change colour on reduction, which living cells bring about.

Data set [1] is described as follows: Pharmacokinetic experiment in SD rats. The conditions noted are these: p.o, 5 mg/kg vs i.v, 0.5 mg/kg.
Protocol: Example 59: Pharmacokinetic Experiment of Compounds in SD Rats
SD rats, male, 6-8 weeks old, purchased from Zhejiang Vital River Laboratory Animal Technology Co., Ltd., production license No.: SCXK (Zhejiang) 2019-0001. The animals were maintained in an SPF-grade animal room of Hangzhou Bio-Sincerity Pharma-Tech Co., Ltd., with the experimental animal use license No. of SYXK (Zhejiang) 2021-0014. The animals were used after being acclimatized for at least one week. All experiments were performed in strict compliance with the regulations on experimental animals.
Four hours after administration, food was provided.
After administration to SD rats, about 300 µL of blood was collected from the orbit of each animal and anticoagulated with EDTA-Na2. […] The collected blood was placed in an ice bath and centrifuged within 1 h to separate plasma (centrifugation conditions: 2000× g, 10 min, 4 °C). 50 µL of plasma sample was taken, subjected to protein precipitation, and then assayed by UHPLC-MS. The assay data were analyzed and processed using WinNonLin8.1 pharmacokinetic software to obtain pharmacokinetic parameters.
The mark [2] stands for this setting: Homo sapiens, U-937, TNF-α 20 ng/mL + BV6 2 µM + Z-VAD-FMK 20 µM.
[3] abbreviates: TNF-α 20 ng/mL + BV6 2 µM + Z-VAD-FMK 20 µM.

What is called EC50 is the concentration at which the effect is half-maximal. As for `CN1C(=O)[C@@H](NC(=O)c2nnc(Cc3ccccc3)[nH]2)COc2ccccc21` [GSK2982772, (S)-5-benzyl-N-(5-methyl-4-oxo-2,3,4,5-tetrahydrobenzo[b][1,4]oxazepin-3-yl)-4H-1,2,4-triazole-3-carboxamide, reference compound], the EC50 in the data set on U937 cells (setting [2]) was in the range of 10 to 100 nM. Also, in data set [1], the “Fabs (%)” value is reported as 39.13 ± 11.8%.

On to `Cn1cc(C#Cc2cc3c4c(c2)CCN4C(=O)C(NC(=O)c2ncn(Cc4c(F)cccc4F)n2)CC3)cn1` (stereo not shown) [III-1, 1-(2,6-difluorobenzyl)-N-(9-((1-methyl-1H-pyrazol-4-yl)ethynyl)-4-oxo-1,2,3,4,6,7-hexahydroazepino[3,2,1-hi]indol-3-yl)-1H-1,2,4-triazole-3-carboxamide], for which the EC50 in the data set with U937 cells (setting [2]) is < 5 nM. Further, the “Fabs (%)” value in data set [1] was found to be 111.92 ± 11.87%.

As for `Cn1cc(C#Cc2cc3c4c(c2)CCN4C(=O)C(NC(=O)c2ncn(Cc4cc(F)ccc4F)n2)CC3)cn1` (stereo not shown) [III-10, 1-(2,5-difluorobenzyl)-N-(9-((1-methyl-1H-pyrazol-4-yl)ethynyl)-4-oxo-1,2,3,4,6,7-hexahydroazepino[3,2,1-hi]indol-3-yl)-1H-1,2,4-triazole-3-carboxamide], the EC50 in the data set with U937 cells (setting [2]) is < 5 nM. In data set [1], the “Fabs (%)” value is given as 51.37 ± 3.03%.

On to `Cn1cc(C#Cc2cc3c4c(c2)CCN4C(=O)C(NC(=O)c2ncn(Cc4ccc(F)c(F)c4)n2)CC3)cn1` (stereo not shown) [III-12, 1-(3,4-difluorobenzyl)-N-(9-((1-methyl-1H-pyrazol-4-yl)ethynyl)-4-oxo-1,2,3,4,6,7-hexahydroazepino[3,2,1-hi]indol-3-yl)-1H-1,2,4-triazole-3-carboxamide], for which the EC50 in the data set on U937 cells (setting [2]) was in the range of 5 to 10 nM. For the same compound, the “Fabs (%)” value in data set [1] worked out at 64.54 ± 10.10%.

Turning to `O=C(NC1CCc2cc(C#Cc3cnn(C(F)F)c3)cc3c2N(CC3)C1=O)c1ncn(Cc2c(F)cccc2F)n1` (stereo not shown) [III-17, 1-(2,6-difluorobenzyl)-N-(9-((1-(difluoromethyl)-1H-pyrazol-4-yl)ethynyl)-4-oxo-1,2,3,4,6,7-hexahydroazepino[3,2,1-hi]indol-3-yl)-1H-1,2,4-triazole-3-carboxamide], the EC50 in the data set on U937 cells (setting [3]) was < 5 nM.

`O=C(NC1CCc2cc(C#Cc3cnn(C(F)F)c3)cc3c2N(CC3)C1=O)c1ncn(Cc2cc(F)ccc2F)n1` (stereo not shown) [III-19, 1-(2,5-difluorobenzyl)-N-(9-((1-(difluoromethyl)-1H-pyrazol-4-yl)ethynyl)-4-oxo-1,2,3,4,6,7-hexahydroazepino[3,2,1-hi]indol-3-yl)-1H-1,2,4-triazole-3-carboxamide]: the EC50 in the data set on U937 cells (setting [2]) is 5 to 10 nM. Moreover, the “Fabs (%)” value in data set [1] is given as 121.33 ± 40.32%.

`O=C(NC1CCc2cc(C#Cc3cnn(C(F)F)c3)cc3c2N(CC3)C1=O)c1ncn(Cc2ccccc2F)n1` (stereo not shown) [III-21, N-(9-((1-(difluoromethyl)-1H-pyrazol-4-yl)ethynyl)-4-oxo-1,2,3,4,6,7-hexahydroazepino[3,2,1-hi]indol-3-yl)-1-(2-fluorobenzyl)-1H-1,2,4-triazole-3-carboxamide]: the concentration for a half-maximal effect (EC50) in the data set with U937 cells (setting [2]) was < 5 nM. The “Fabs (%)” value in data set [1] was determined as 97.15 ± 40.17%.

For `C#Cc1cc2c3c(c1)CCN3C(=O)C(NC(=O)c1ncn(Cc3c(F)cccc3F)n1)CC2` (stereo not shown) [III-26, 1-(2,6-difluorobenzyl)-N-(9-ethynyl-4-oxo-1,2,3,4,6,7-hexahydroazepino[3,2,1-hi]indol-3-yl)-1H-1,2,4-triazole-3-carboxamide], the EC50 in the data set with U937 cells (setting [2]) is < 5 nM. Further, the “Fabs (%)” value in data set [1] is 51.2 ± 3.29%.

Turning to “N-(9-((1-(difluoromethyl)-1H-pyrazol-4-yl)ethynyl)-4-oxo-1,2,3,4,6,7-hexahydroazepino[3,2,1-hi]indol-3-yl)-1-(4-methylbenzyl)-1H-1,2,4-triazole-3-carboxamide [III-25]”, the EC50 with U937 cells (setting [3]) fell in the range of 10 to 100 nM.
